Assay results reported in the NIST ThermoML archive (doi:10.1016/j.jct.2015.01.004).
Where “and” joins values, the source holds several entries; their conditions need not be identical. Equal values may be shown once.

Test: molar heat capacity at constant pressure; xn = mol fraction of the nth substance listed
Conditions: 100 kPa

[Si] [silicon] + [Li]
Conditions | molar heat capacity at constant pressure
127.62 K, Crystal of intercomponent compound 2, relaxation calorimeter, x2 = 0.804 | 12.78 J/K/mol
127.64 K, Crystal of intercomponent compound 2, relaxation calorimeter, x2 = 0.804 | 12.84 J/K/mol
130 K, Crystal of intercomponent compound 1, relaxation calorimetry + DSC, x2 = 0.81 | 12.64 J/K/mol
130 K, Crystal of intercomponent compound 2, relaxation calorimetry + DSC, x2 = 0.804 | 13.04 J/K/mol
131.69 K, Crystal of intercomponent compound 1, relaxation calorimetry, x2 = 0.81 | 12.88 J/K/mol
131.69 K, Crystal of intercomponent compound 2, relaxation calorimeter, x2 = 0.804 | 13.22 J/K/mol
131.71 K, Crystal of intercomponent compound 2, relaxation calorimeter, x2 = 0.804 | 13.3 J/K/mol
135.76 K, Crystal of intercomponent compound 1, relaxation calorimetry, x2 = 0.81 | 13.31 J/K/mol
135.76 K, Crystal of intercomponent compound 2, relaxation calorimeter, x2 = 0.804 | 13.64 J/K/mol
135.78 K, Crystal of intercomponent compound 2, relaxation calorimeter, x2 = 0.804 | 13.71 J/K/mol
139.83 K, Crystal of intercomponent compound 1, relaxation calorimetry, x2 = 0.81 | 13.71 J/K/mol
139.83 K, Crystal of intercomponent compound 2, relaxation calorimeter, x2 = 0.804 | 14.04 J/K/mol
139.85 K, Crystal of intercomponent compound 2, relaxation calorimeter, x2 = 0.804 | 14.09 J/K/mol
140 K, Crystal of intercomponent compound 1, relaxation calorimetry + DSC, x2 = 0.81 | 13.65 J/K/mol
140 K, Crystal of intercomponent compound 2, relaxation calorimetry + DSC, x2 = 0.804 | 14.07 J/K/mol
143.86 K, Crystal of intercomponent compound 1, relaxation calorimetry, x2 = 0.81 | 14.08 J/K/mol
143.87 K, Crystal of intercomponent compound 2, relaxation calorimeter, x2 = 0.804 | 14.45 J/K/mol
143.88 K, Crystal of intercomponent compound 2, relaxation calorimeter, x2 = 0.804 | 14.5 J/K/mol
147.97 K, Crystal of intercomponent compound 1, relaxation calorimetry, x2 = 0.81 | 14.51 J/K/mol
147.98 K, Crystal of intercomponent compound 2, relaxation calorimeter, x2 = 0.804 | 14.83 J/K/mol
147.99 K, Crystal of intercomponent compound 2, relaxation calorimeter, x2 = 0.804 | 14.94 J/K/mol
150 K, Crystal of intercomponent compound 1, relaxation calorimetry + DSC, x2 = 0.81 | 14.58 J/K/mol
150 K, Crystal of intercomponent compound 2, relaxation calorimetry + DSC, x2 = 0.804 | 15.01 J/K/mol
152 K, Crystal of intercomponent compound 1, relaxation calorimetry, x2 = 0.81 | 14.84 J/K/mol
152 K, Crystal of intercomponent compound 2, relaxation calorimeter, x2 = 0.804 | 15.17 J/K/mol
152.02 K, Crystal of intercomponent compound 2, relaxation calorimeter, x2 = 0.804 | 15.29 J/K/mol
156.1 K, Crystal of intercomponent compound 1, relaxation calorimetry, x2 = 0.81 | 15.17 J/K/mol
156.1 K, Crystal of intercomponent compound 2, relaxation calorimeter, x2 = 0.804 | 15.54 J/K/mol
156.12 K, Crystal of intercomponent compound 2, relaxation calorimeter, x2 = 0.804 | 15.62 J/K/mol
160 K, Crystal of intercomponent compound 1, relaxation calorimetry + DSC, x2 = 0.81 | 15.43 J/K/mol
160 K, Crystal of intercomponent compound 2, relaxation calorimetry + DSC, x2 = 0.804 | 15.88 J/K/mol
160.12 K, Crystal of intercomponent compound 1, relaxation calorimetry, x2 = 0.81 | 15.52 J/K/mol
160.13 K, Crystal of intercomponent compound 2, relaxation calorimeter, x2 = 0.804 | 15.86 J/K/mol
160.14 K, Crystal of intercomponent compound 2, relaxation calorimeter, x2 = 0.804 | 15.96 J/K/mol
164.23 K, Crystal of intercomponent compound 1, relaxation calorimetry, x2 = 0.81 | 15.85 J/K/mol
164.23 K, Crystal of intercomponent compound 2, relaxation calorimeter, x2 = 0.804 | 16.22 J/K/mol
164.24 K, Crystal of intercomponent compound 2, relaxation calorimeter, x2 = 0.804 | 16.27 J/K/mol
168.29 K, Crystal of intercomponent compound 1, relaxation calorimetry, x2 = 0.81 | 16.17 J/K/mol
168.29 K, Crystal of intercomponent compound 2, relaxation calorimeter, x2 = 0.804 | 16.53 J/K/mol
168.31 K, Crystal of intercomponent compound 2, relaxation calorimeter, x2 = 0.804 | 16.6 J/K/mol
170 K, Crystal of intercomponent compound 1, relaxation calorimetry + DSC, x2 = 0.81 | 16.22 J/K/mol
170 K, Crystal of intercomponent compound 2, relaxation calorimetry + DSC, x2 = 0.804 | 16.67 J/K/mol
172.36 K, Crystal of intercomponent compound 1, relaxation calorimetry, x2 = 0.81 | 16.41 J/K/mol
172.36 K, Crystal of intercomponent compound 2, relaxation calorimeter, x2 = 0.804 | 16.79 J/K/mol
172.38 K, Crystal of intercomponent compound 2, relaxation calorimeter, x2 = 0.804 | 16.9 J/K/mol
176.43 K, Crystal of intercomponent compound 1, relaxation calorimetry, x2 = 0.81 | 16.71 J/K/mol
176.43 K, Crystal of intercomponent compound 2, relaxation calorimeter, x2 = 0.804 | 17.06 J/K/mol and 17.19 J/K/mol
180 K, Crystal of intercomponent compound 1, relaxation calorimetry + DSC, x2 = 0.81 | 16.94 J/K/mol
180 K, Crystal of intercomponent compound 2, relaxation calorimetry + DSC, x2 = 0.804 | 17.39 J/K/mol
180.45 K, Crystal of intercomponent compound 1, relaxation calorimetry, x2 = 0.81 | 16.95 J/K/mol
180.45 K, Crystal of intercomponent compound 2, relaxation calorimeter, x2 = 0.804 | 17.33 J/K/mol
180.46 K, Crystal of intercomponent compound 2, relaxation calorimeter, x2 = 0.804 | 17.44 J/K/mol
184.56 K, Crystal of intercomponent compound 2, relaxation calorimeter, x2 = 0.804 | 17.58 J/K/mol
184.57 K, Crystal of intercomponent compound 1, relaxation calorimetry, x2 = 0.81 | 17.2 J/K/mol
184.57 K, Crystal of intercomponent compound 2, relaxation calorimeter, x2 = 0.804 | 17.69 J/K/mol
188.58 K, Crystal of intercomponent compound 2, relaxation calorimeter, x2 = 0.804 | 17.84 J/K/mol
188.59 K, Crystal of intercomponent compound 1, relaxation calorimetry, x2 = 0.81 | 17.45 J/K/mol
188.59 K, Crystal of intercomponent compound 2, relaxation calorimeter, x2 = 0.804 | 17.97 J/K/mol
190 K, Crystal of intercomponent compound 1, relaxation calorimetry + DSC, x2 = 0.81 | 17.6 J/K/mol
190 K, Crystal of intercomponent compound 2, relaxation calorimetry + DSC, x2 = 0.804 | 18.05 J/K/mol
192.69 K, Crystal of intercomponent compound 1, relaxation calorimetry, x2 = 0.81 | 17.73 J/K/mol
192.69 K, Crystal of intercomponent compound 2, relaxation calorimeter, x2 = 0.804 | 18.09 J/K/mol
192.71 K, Crystal of intercomponent compound 2, relaxation calorimeter, x2 = 0.804 | 18.27 J/K/mol
196.74 K, Crystal of intercomponent compound 2, relaxation calorimeter, x2 = 0.804 | 18.32 J/K/mol
196.78 K, Crystal of intercomponent compound 1, relaxation calorimetry, x2 = 0.81 | 17.96 J/K/mol
196.78 K, Crystal of intercomponent compound 2, relaxation calorimeter, x2 = 0.804 | 18.47 J/K/mol
200 K, Crystal of intercomponent compound 1, relaxation calorimetry + DSC, x2 = 0.81 | 18.2 J/K/mol
200 K, Crystal of intercomponent compound 2, relaxation calorimetry + DSC, x2 = 0.804 | 18.65 J/K/mol
200.77 K, Crystal of intercomponent compound 2, relaxation calorimeter, x2 = 0.804 | 18.54 J/K/mol
200.8 K, Crystal of intercomponent compound 1, relaxation calorimetry, x2 = 0.81 | 18.22 J/K/mol
200.8 K, Crystal of intercomponent compound 2, relaxation calorimeter, x2 = 0.804 | 18.74 J/K/mol
204.91 K, Crystal of intercomponent compound 2, relaxation calorimeter, x2 = 0.804 | 18.8 J/K/mol
204.92 K, Crystal of intercomponent compound 1, relaxation calorimetry, x2 = 0.81 | 18.43 J/K/mol
204.93 K, Crystal of intercomponent compound 2, relaxation calorimeter, x2 = 0.804 | 18.97 J/K/mol
208.92 K, Crystal of intercomponent compound 2, relaxation calorimeter, x2 = 0.804 | 19.05 J/K/mol
208.93 K, Crystal of intercomponent compound 1, relaxation calorimetry, x2 = 0.81 | 18.63 J/K/mol
208.94 K, Crystal of intercomponent compound 2, relaxation calorimeter, x2 = 0.804 | 19.19 J/K/mol
210 K, Crystal of intercomponent compound 1, relaxation calorimetry + DSC, x2 = 0.81 | 18.76 J/K/mol
210 K, Crystal of intercomponent compound 2, relaxation calorimetry + DSC, x2 = 0.804 | 19.19 J/K/mol
213.04 K, Crystal of intercomponent compound 2, relaxation calorimeter, x2 = 0.804 | 19.24 J/K/mol
213.05 K, Crystal of intercomponent compound 1, relaxation calorimetry, x2 = 0.81 | 18.87 J/K/mol
